The values that follow come from patent US6391897B2, “Biphenyl oxo-acetic acids useful in the treatment of insulin resistance and hyperglycemia” (American Home Products Corporation, priority 1998, dated 2002).

One experiment addresses T1, Human recombinant PTP1B (Homo sapiens, UniProt P18031).
T1 construct: made in house
T1 sequence (P18031 1-435): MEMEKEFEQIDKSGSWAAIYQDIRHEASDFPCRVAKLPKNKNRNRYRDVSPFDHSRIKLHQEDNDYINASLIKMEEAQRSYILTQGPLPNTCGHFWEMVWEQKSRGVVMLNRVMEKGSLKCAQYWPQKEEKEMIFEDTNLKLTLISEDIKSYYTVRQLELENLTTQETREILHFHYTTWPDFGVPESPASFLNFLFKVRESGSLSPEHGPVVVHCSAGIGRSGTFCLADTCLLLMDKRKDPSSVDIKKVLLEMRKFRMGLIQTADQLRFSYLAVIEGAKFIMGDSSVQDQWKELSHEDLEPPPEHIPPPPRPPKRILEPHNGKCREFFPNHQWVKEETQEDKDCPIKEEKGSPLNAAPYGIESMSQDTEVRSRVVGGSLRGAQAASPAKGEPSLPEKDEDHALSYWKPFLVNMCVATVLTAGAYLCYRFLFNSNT
Description: Inhibition of tri-phosphorylated insulin receptor dodecaphosphopeptide dephosphorylation by hPTP1B (malachite green). The experiment is classed as biochemical. As to conditions: compound at 2.5 uM.

Another experiment has as its system diabetic (ob/ob) mice. Nature of the experiment: Blood glucose lowering in diabetic (ob/ob) mice. The experiment is classed as in vivo. As to conditions: Mus musculus, po.
Setting [1] is: read-out: % Change Insulin from Vehicle.

Read-outs that look alike come from different tables or passages of the source.

For `O=C(O)C(Cc1ccccc1)Oc1ccc(-c2ccc(-c3c(Br)oc4ccccc34)cc2)cc1` (centres unmarked) [Example 7, 2-[4′-(2-Bromo-benzofuran-3-yl)-biphenyl-4-yloxy]-3-phenyl-propionic acid], on Human recombinant PTP1B, the “percent of phosphatase control (change) at 2.5 uM” value (shortened to “percent … (change) at 2.5 uM”) is −58 (2.5 uM) %. Turning to `COC(=O)[C@H](Cc1ccccc1)Oc1ccc(-c2ccc(-c3c(Cc4ccccc4)oc4ccccc34)cc2)cc1` [Example 23, (2S)-2-[4′-(2-Benzyl-benzofuran-3-yl)-biphenyl-4-yloxy]-3-phenyl-propionic acid methyl ester], the “percent … (change) at 2.5 uM” value on Human recombinant PTP1B was −36 (2.5 uM) %.

For the molecule `O=C(O)[C@H](Cc1ccccc1)Oc1ccc(-c2ccc(-c3nc4ccccc4n3Cc3ccccc3)cc2)cc1` [Example 70, (2S)-2-[4′-(1-Benzyl-1H-benzimidazol-2-yl)-biphenyl-4-yloxy]-3-phenyl-propionic acid], the “percent … (change) at 2.5 uM” value on Human recombinant PTP1B is on record as −41 (2.5 uM) %.

Turning to `CC(=O)c1ccc(-c2ccc(-c3ccc(O[C@@H](Cc4ccccc4)C(=O)[O-])cc3)cc2)s1.[Na+]` [Example 71, (2S)-2-[4′-(5-acetyl-thiophen-2-yl)-biphenyl-4-yloxy]-3-phenyl-propionic acid sodium salt], the “percent … (change) at 2.5 uM” value at Human recombinant PTP1B was −43 (2.5 uM) %.

Consider `CC1(COc2ccc(CC3SC(=O)NC3=O)cc2)CCCCC1` (centres unmarked) [Ciglitazone, 5-(4-(1-methylcyclohexylmethoxy)benzyl)-2,4-dione], for which the change in vivo at 100 mg/kg was -43% with diabetic (ob/ob) mice (96 h, plasma glucose on Day 4, 7 or 14, read-out: % Change Glucose from Vehicle) and -39% in the experiment on diabetic (ob/ob) mice (setting [1]). For the molecule `O=C(O)COc1ccc(-c2ccc(-c3c(Br)oc4ccccc34)cc2)cc1` [Example 6, [4′-(2-Bromo-benzofuran-3-yl)-biphenyl-4-yloxy]-acetic acid], on Human recombinant PTP1B, the “percent … (change) at 2.5 uM” value is listed as −15 (2.5 uM) %. Take `O=C(c1ccccc1)c1oc2ccccc2c1-c1ccc(-c2ccc(OC(Cc3ccccc3)C(=O)O)cc2)cc1` (centres unmarked) [Example 14, 2-[4′-(2-Benzoyl-benzofuran-3-yl)-biphenyl-4-yloxy]-3-phenyl-propionic acid]: in the experiment with diabetic (ob/ob) mice (setting [1]), the change in vivo at 100 mg/kg was found to be 19.8%.
